Reference: patent US20260325533A1, “CDK INHIBITOR COMPOUNDS” (ALEKSIA THERAPEUTICS, INC., priority 2023, published 2026)
Like-named read-outs stand apart in the source and are kept apart here. One block for each compound: values may come before it.

Tests used:
Assay type in all cases: biochemical
CDK6/CCND1 = CDK6/CCND1 (Homo sapiens, UniProt Q00534); test: CDK6 homogeneous time-resolved fluorescence (HTRF) kinase assay; conditions: CDK6/CCND
Description: (§1) A CDK homogeneous time-resolved fluorescence (HTRF) assay was used to assess the potency of the compounds described herein.
(§2) To an untreated 384-well microtiter plate (ProxiPlate) was added 100 nL 100×test compound in DMSO and 5 μL 2×CDK enzyme in assay buffer (50 mM HEPES, 1 mM EGTA, 10 mM MgCl2, 0.01% Tween 20, 2 mM DTT). The plate was centrifuged at 800 RPM for 1 min then incubated for 20 min at 23 °C. 2.5 μL per well of 4×ATP and 2.5 μL 4×ULight™-eIF4E-binding protein 1 (Thr37/46) Peptide substrate were added to all wells. After addition, the plates were centrifuged at 800 RPM for 1 min. The plates were incubated at 23 °C for 60 min. 5 μL per well 4×EDTA solution were added to each well to stop the reaction. 5 μL 4×LANCE Ultra Europium-anti-phospho-eIF4E-binding protein 1 (Thr37/46) antibody were added to each well and the plate was centrifuged for 1 min at 800 RPM. The plate was incubated for 60 min at 23 °C. Fluorescence was read at 340 nm excitation and 665 nm emission on an EnVision 2105 fluorescence reader. The final concentrations of reagents in the activity assay were 1 nM CDK6/CCND1, 1 mM ATP, 50 nM ULight™-eIF4E-binding protein 1 (Thr37/46) Peptide substrate, 1% DMSO, 10 mM EDTA, and 2 nM LANCE Ultra Europium-anti-phospho-eIF4E-binding protein 1 (Thr37/46).
(§3) Dose-response titrations were conducted by using an 11-point, half-logarithmic serial dilution scheme typically starting at 10 μM. Signals were reported as fluorescence units at 665 nm or the ratio of fluorescence units at 665 nm/fluorescence units at 615 nm. Signals are referred to below as “Lance signals”.
(§4) Using this assay, the IC50 values of example compounds were determined. Table 3 illustrates the IC50 for various Example compounds of Formula IA. Table 4 illustrates the IC50 for various other Example compounds of Formula I. ND=not determined.

CDK1/CCNB1 = CDK1/CCNB1 (Homo sapiens, UniProt P06493); test: CDK1 homogeneous time-resolved fluorescence (HTRF) kinase assay; conditions: CDK1/CCNB
Chain of CDK1/CCNB1 (P06493 whole entry): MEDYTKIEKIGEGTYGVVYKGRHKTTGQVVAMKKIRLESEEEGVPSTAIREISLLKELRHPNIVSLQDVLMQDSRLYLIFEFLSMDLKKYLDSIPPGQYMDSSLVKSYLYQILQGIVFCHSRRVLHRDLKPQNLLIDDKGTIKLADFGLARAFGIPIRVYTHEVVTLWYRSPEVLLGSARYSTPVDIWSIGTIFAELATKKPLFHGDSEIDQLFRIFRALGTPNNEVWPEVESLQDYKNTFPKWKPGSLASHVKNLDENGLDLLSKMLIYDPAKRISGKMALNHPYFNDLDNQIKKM
Chain of CDK1/CCNB1 (P14635 whole entry partner): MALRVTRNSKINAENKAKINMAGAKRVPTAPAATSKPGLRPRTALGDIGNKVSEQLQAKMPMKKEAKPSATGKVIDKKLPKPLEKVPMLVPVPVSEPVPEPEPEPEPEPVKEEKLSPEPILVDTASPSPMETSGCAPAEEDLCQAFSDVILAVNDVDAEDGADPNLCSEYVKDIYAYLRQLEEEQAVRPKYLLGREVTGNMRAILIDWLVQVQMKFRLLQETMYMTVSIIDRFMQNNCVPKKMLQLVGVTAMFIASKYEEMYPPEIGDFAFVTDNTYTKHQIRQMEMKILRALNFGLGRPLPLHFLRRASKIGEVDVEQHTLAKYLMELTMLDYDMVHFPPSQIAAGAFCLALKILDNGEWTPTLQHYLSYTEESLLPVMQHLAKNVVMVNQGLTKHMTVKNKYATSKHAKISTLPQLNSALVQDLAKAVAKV
Procedure, shortened: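 0.5 nM CDK1/CCNB1 was preincubated 20 min at 23 °C with compound in HEPES pH-unspecified buffer (MgCl2, EGTA, DTT, Tween 20), then reacted 60 min with 1 mM ATP and 50 nM ULight-4E-BP1 (Thr37/46) peptide. EDTA-stopped reactions were detected with 2 nM Eu-anti-phospho antibody; IC50 from 11-point half-log titrations.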

CDK2/CCNE1 = CDK2/CCNE1 (Homo sapiens, UniProt P24941); test: CDK2 homogeneous time-resolved fluorescence (HTRF) kinase assay; conditions: CDK2/CCNE
Procedure, shortened: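 CDK2/CCNE1 (3 nM) preincubated 20 min at 23 °C with compound, then reacted 60 min at 23 °C with 1 mM ATP and 50 nM ULight-4E-BP1 (Thr37/46) peptide. Stopped with EDTA, phospho-peptide detected by Eu-anti-phospho antibody (665 nm or 665/615 ratio). IC50 from 11-point half-log titrations typically starting at 10 μM.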

CDK4/CCND3 = CDK4/CCND3 (Homo sapiens, UniProt P11802); test: CDK4 homogeneous time-resolved fluorescence (HTRF) kinase assay; conditions: CDK4/CCND
Chain of CDK4/CCND3 (P11802 whole entry): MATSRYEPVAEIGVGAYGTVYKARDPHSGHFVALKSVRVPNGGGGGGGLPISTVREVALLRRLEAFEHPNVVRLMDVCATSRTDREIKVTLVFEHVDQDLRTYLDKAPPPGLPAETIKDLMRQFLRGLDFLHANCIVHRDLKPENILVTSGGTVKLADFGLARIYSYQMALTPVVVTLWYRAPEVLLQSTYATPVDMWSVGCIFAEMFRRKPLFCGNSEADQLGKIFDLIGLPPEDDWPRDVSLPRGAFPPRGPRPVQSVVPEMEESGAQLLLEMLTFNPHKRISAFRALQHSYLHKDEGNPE
Chain of CDK4/CCND3 (P30281 whole entry partner): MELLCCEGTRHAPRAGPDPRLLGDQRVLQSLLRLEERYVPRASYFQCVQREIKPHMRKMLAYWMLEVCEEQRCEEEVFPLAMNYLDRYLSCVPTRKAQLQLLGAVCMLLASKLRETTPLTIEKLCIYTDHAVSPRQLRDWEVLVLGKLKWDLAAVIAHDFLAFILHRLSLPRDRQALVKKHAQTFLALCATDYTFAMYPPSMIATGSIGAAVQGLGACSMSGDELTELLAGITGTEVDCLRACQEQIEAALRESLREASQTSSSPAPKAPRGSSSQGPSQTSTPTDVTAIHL
Description: as §1
as §2, with “were 1.5” for “were 1”, “nM CDK4/CCND3,” for “nM CDK6/CCND1,”
as §3, §4

[1] = x = IC50 25-250 nM, read-out: CDK6/CCND IC50 (25-250 nM)
[2] = >250 nM marked x, read-out: CDK6/CCND IC50 >250 nM
[3] = x = IC50 >250 nM, read-out: CDK6/CCND IC50 (>250 nM column)

Chain of CDK6/CCND1 (Q00534 whole entry): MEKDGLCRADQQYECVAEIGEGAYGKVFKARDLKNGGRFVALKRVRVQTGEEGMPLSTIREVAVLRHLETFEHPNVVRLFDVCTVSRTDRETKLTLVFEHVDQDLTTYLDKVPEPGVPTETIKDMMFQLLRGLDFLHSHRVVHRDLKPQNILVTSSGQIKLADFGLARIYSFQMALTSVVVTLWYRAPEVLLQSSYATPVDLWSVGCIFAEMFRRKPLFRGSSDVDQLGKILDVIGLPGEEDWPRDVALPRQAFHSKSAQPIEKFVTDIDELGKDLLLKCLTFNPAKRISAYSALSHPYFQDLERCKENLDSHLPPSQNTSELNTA
Chain of CDK6/CCND1 (P24385 whole entry partner): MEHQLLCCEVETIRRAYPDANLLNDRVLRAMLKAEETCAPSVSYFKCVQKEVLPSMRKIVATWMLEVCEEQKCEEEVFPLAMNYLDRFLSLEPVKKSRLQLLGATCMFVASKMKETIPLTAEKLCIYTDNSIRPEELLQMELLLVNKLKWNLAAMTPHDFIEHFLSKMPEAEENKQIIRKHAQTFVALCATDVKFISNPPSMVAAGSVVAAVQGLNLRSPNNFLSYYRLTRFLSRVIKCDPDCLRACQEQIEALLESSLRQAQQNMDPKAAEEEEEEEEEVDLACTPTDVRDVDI

IC50 (CDK6/CCND1; >250 nM, 1 mM ATP, read-out: CDK6/CCND IC50, >250 nM): > 250 nM
IC50 (CDK1/CCNB1; >250 nM, read-out: CDK1/CCNB IC50 >250 nM): > 250 nM
IC50 (CDK2/CCNE1; <25 nM, read-out: CDK2/CCNE IC50, <25 nM): < 25 nM
Structure (SMILES): Cc1c(-c2nccc3cnc(Nc4ccc(S(=O)(=O)Nc5cc(F)cc(C(C)(C)O)c5)cc4)cc23)ccc2c1cnn2CC(C)(C)O [Ex 801, N-(3-fluoro-5-(2-hydroxypropan-2-yl)phenyl)-4-((5-(1-(2-hydroxy-2-methylpropyl)-4-methyl-1H-indazol-5-yl)-2,6-naphthyridin-3-yl)amino)benzenesulfonamide]

IC50 (CDK4/CCND3; x = IC50 <25 nM, read-out: CDK4/CCND IC50 (<25 nM)): < 25 nM
IC50 (CDK1/CCNB1; x = IC50 25-250 nM, read-out: CDK1/CCNB IC50 (25-250 nM)): 25 to 250 nM
Structure (SMILES): CC1(C)C(=O)Nc2cc(C#Cc3nccc4cnc(Nc5ccc(S(=N)(=O)C6CCC6)cc5)cc34)ccc21 (single isomer, unassigned) [Ex 454, 6-((7-((4-(cyclobutanesulfonimidoyl)phenyl)amino)-2,6-naphthyridin-1-yl)ethynyl)-3,3-dimethylindolin-2-one]

IC50 (CDK6/CCND1; [1]): 25 to 250 nM
Structure (SMILES): N=S(=O)(c1ccc(Nc2cc3c(C#Cc4ccc5c(c4)NC(=O)C54CCC4)nccc3cn2)cc1)C1CC1 (single isomer, unassigned) [Ex 365, 6'-((7-((4-(cyclopropanesulfonimidoyl)phenyl)amino)-2,6-naphthyridin-1-yl)ethynyl)spiro[cyclobutane-1,3'-indolin]-2'-one]

IC50 (CDK6/CCND1; [2]): > 250 nM
Structure (SMILES): CC(C)S(=N)(=O)c1ccc(Nc2cc3c(C#Cc4ccc5c(c4)NC(=O)C5(C)O)nccc3cn2)cc1 (single isomer, unassigned) [Ex 292, 3-hydroxy-3-methyl-6-((7-((4-(propan-2-ylsulfonimidoyl)phenyl)amino)-2,6-naphthyridin-1-yl)ethynyl)indolin-2-one]

IC50 (CDK6/CCND1; [3]): > 250 nM
Structure (SMILES): Cc1c(-c2nccc3cnc(Nc4ccc(S(C)(=N)=O)cc4)cc23)ccc2nn(C)cc12 (single isomer, unassigned) [Example 546, (4-((5-(2,4-dimethyl-2H-indazol-5-yl)-2,6-naphthyridin-3-yl)amino)phenyl)(imino)(methyl)-λ^6-sulfanone]

IC50 (CDK4/CCND3; x = IC50 25-250 nM, read-out: CDK4/CCND IC50 (25-250 nM)): 25 to 250 nM
Structure (SMILES): N=S(=O)(c1ccc(Nc2cc3c(C#Cc4ccc5c(c4)NC(=O)C54CC4)nccc3cn2)cc1)C1CCC1 (single isomer, unassigned) [Ex 353, 6'-((7-((4-(cyclobutanesulfonimidoyl)phenyl)amino)-2,6-naphthyridin-1-yl)ethynyl)spiro[cyclopropane-1,3'-indolin]-2'-one]

IC50 (CDK6/CCND1; [2]): > 250 nM
Structure (SMILES): CC(C)S(=N)(=O)c1ccc(Nc2cc3c(C#Cc4ccc5c(c4)NC(=O)C5(C)CCO)nccc3cn2)cc1 (single isomer, unassigned) [Ex 287, 3-(2-hydroxyethyl)-3-methyl-6-((7-((4-(propan-2-ylsulfonimidoyl)phenyl)amino)-2,6-naphthyridin-1-yl)ethynyl)indolin-2-one]

IC50 (CDK6/CCND1; [1]): 25 to 250 nM
IC50 (CDK1/CCNB1; x = IC50 <25 nM, read-out: CDK1/CCNB IC50 (<25 nM)): < 25 nM
IC50 (CDK2/CCNE1; x = IC50 <25 nM, read-out: CDK2/CCNE IC50 (<25 nM)): < 25 nM
Structure (SMILES): CC1(C)C(=O)Nc2cc(C#Cc3nccc4cnc(Nc5ccc(S(=N)(=O)C6CCC6)cc5)cc34)ccc21 (single isomer, unassigned) [Ex 453, 6-((7-((4-(cyclobutanesulfonimidoyl)phenyl)amino)-2,6-naphthyridin-1-yl)ethynyl)-3,3-dimethylindolin-2-one]

IC50 (CDK6/CCND1; [1]): 25 to 250 nM
Structure (SMILES): CS(=N)(=O)c1ccc(Nc2cc3c(C#Cc4ccc5c(c4)NC(=O)C54CC4)nccc3cn2)cc1 (single isomer, unassigned) [Ex 359, 6'-((7-((4-(S-methylsulfonimidoyl)phenyl)amino)-2,6-naphthyridin-1-yl)ethynyl)spiro[cyclopropane-1,3'-indolin]-2'-one]

IC50 (CDK6/CCND1; [3]): > 250 nM
Structure (SMILES): CC1(CO)C(=O)Nc2cc(C#Cc3nccc4cnc(Nc5ccc(S(C)(=O)=O)cc5)cc34)ccc21 (single isomer, unassigned) [Example 373, 3-(hydroxymethyl)-3-methyl-6-((7-((4-(methylsulfonyl)phenyl)amino)-2,6-naphthyridin-1-yl)ethynyl)indolin-2-one]

IC50 (CDK6/CCND1; [3]): > 250 nM
Structure (SMILES): CC(C)S(=N)(=O)c1ccc(Nc2cc3c(C#Cc4ccc5c(c4)NC(=O)C5(C)C)nccc3cn2)cc1 (single isomer, unassigned) [Ex 456, 3,3-dimethyl-6-((7-((4-(propan-2-ylsulfonimidoyl)phenyl)amino)-2,6-naphthyridin-1-yl)ethynyl)indolin-2-one]

IC50 (CDK4/CCND3; x = IC50 >250 nM, read-out: CDK4/CCND IC50 (>250 nM column)): > 250 nM
Structure (SMILES): CCC1(CC)C(=O)Nc2cc(C#Cc3nccc4cnc(Nc5ccc(S(=N)(=O)C6CCC6)cc5)cc34)ccc21 (single isomer, unassigned) [Example 413, 6-((7-((4-(cyclobutanesulfonimidoyl)phenyl)amino)-2,6-naphthyridin-1-yl)ethynyl)-3,3-diethylindolin-2-one]

IC50 (CDK6/CCND1; <25 nM, read-out: CDK6/CCND IC50 <25 nM): < 25 nM
IC50 (CDK1/CCNB1; >250 nM marked x, read-out: CDK1/CCNB IC50 >250 nM): > 250 nM
IC50 (CDK2/CCNE1; >250 nM marked x, read-out: CDK2/CCNE IC50 >250 nM): > 250 nM
Structure (SMILES): CS(=O)(=O)N1CCC(Nc2cc3c(C(=O)N4CCCC(O)C4)nccc3cn2)CC1 (racemic) [Ex 95, (3-hydroxypiperidin-1-yl)(7-((1-(methylsulfonyl)piperidin-4-yl)amino)-2,6-naphthyridin-1-yl)methanone]

IC50 (CDK6/CCND1; [3]): > 250 nM
Structure (SMILES): CCS(=N)(=O)c1ccc(Nc2cc3c(C#Cc4ccc5c(c4)NC(=O)C54CCC4)nccc3cn2)cc1 (single isomer, unassigned) [Ex 367, 6'-((7-((4-(ethylsulfonimidoyl)phenyl)amino)-2,6-naphthyridin-1-yl)ethynyl)spiro[cyclobutane-1,3'-indolin]-2'-one]

IC50 (CDK6/CCND1; [1]): 25 to 250 nM
Structure (SMILES): CC1(C)C(=O)Nc2cc(C#Cc3nccc4cnc(Nc5ccc(S(C)(=N)=O)cc5)cc34)ccc21 (single isomer, unassigned) [Ex 452, 3,3-dimethyl-6-((7-((4-(S-methylsulfonimidoyl)phenyl)amino)-2,6-naphthyridin-1-yl)ethynyl)indolin-2-one]
